From ChEMBL document CHEMBL1156934, “Synthesis and SAR of thiazolidinedione derivatives as 15-PGDH inhibitors” (Bioorg Med Chem, 2010)

target: T1, 15-hydroxyprostaglandin dehydrogenase [NAD(+)] (Homo sapiens, UniProt P15428); assay: Inhibition of human 15PGDH expressed in Escherichia coli BL-21 by fluorescence spectrophotometry
T1 sequence (P15428 whole entry): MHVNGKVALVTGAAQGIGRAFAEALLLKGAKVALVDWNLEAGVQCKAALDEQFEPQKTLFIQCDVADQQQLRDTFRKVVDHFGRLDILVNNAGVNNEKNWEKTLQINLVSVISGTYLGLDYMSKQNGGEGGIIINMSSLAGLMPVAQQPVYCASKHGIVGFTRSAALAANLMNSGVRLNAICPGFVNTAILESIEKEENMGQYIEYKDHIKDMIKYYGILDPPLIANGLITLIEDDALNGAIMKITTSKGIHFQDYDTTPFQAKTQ

IC50 [nM] | SMILES
31 | O=C1N=C(O)S/C1=C\c1ccc(OCCc2cccs2)cc1
3720 | O=C1N=C(O)S/C1=C\c1ccc(OCCNC2CCCCC2)cc1
636 | Cc1ncsc1CCOc1ccc(/C=C2\SC(O)=NC2=O)cc1
232 | Cc1ccc(COc2ccc(/C=C3\SC(O)=NC3=O)cc2)cc1
750 | O=C1NC(=O)/C(=C/c2ccc(OCCC3CCCCO3)cc2)S1 (stereo unspecified)
287 | O=C1NC(=O)/C(=C/c2ccc(OCc3cccs3)cc2)S1
429 | O=C1N=C(O)S/C1=C\c1ccc(OCc2ccsc2)cc1
116 | O=C1NC(=O)/C(=C/c2ccc(OCCC3CCCC3)cc2)S1
526 | O=C1S/C(=C\c2ccc(OCCC3CCCCC3)cc2)C(=O)N1CCO
172 | O=C1NC(=O)/C(=C\c2ccc(OCC3COc4ccccc4O3)cc2)S1 (stereo unspecified)
713 | O=C1NC(=O)/C(=C/c2ccc(OCCN3CCOCC3)cc2)S1
1250 | CC(C)OCCOc1ccc(/C=C2\SC(O)=NC2=O)cc1
660 | O=C1N=C(O)S/C1=C\c1ccc(OCCc2ccccn2)cc1
52 | CC1CCC(COc2ccc(/C=C3\SC(O)=NC3=O)cc2)CC1 (stereo unspecified)
620 | COC(=O)C1CCC(COc2ccc(/C=C3\SC(=O)NC3=O)cc2)CC1 (stereo unspecified)
814 | O=C1NC(=O)/C(=C\c2ccc(OCc3ccc(-c4ccccc4)cc3)cc2)S1
274 | O=C1N=C(O)S/C1=C\c1ccc(OCCN2CCS(=O)(=O)CC2)cc1
1440 | O=C1N=C(O)S/C1=C\c1ccc(OCCN2CCCCC2)cc1
1960 | O=C1N=C(O)S/C1=C\c1ccc(OCCCN2CCS(=O)(=O)CC2)cc1
893 | O=C1NC(=O)/C(=C/c2ccc(OCc3ccco3)cc2)S1
865 | O=C1NC(=O)/C(=C/c2ccc(OCCC3CCCCC3)cc2)N1
252 | O=C1N=C(O)S/C1=C\c1ccc(OCc2ccc3c(c2)OCO3)cc1
529 | COc1ccc(COc2ccc(/C=C3\SC(=O)NC3=O)cc2)cc1
3790 | O=C1C/C(=C\c2ccc(OCCC3CCCCC3)cc2)C(=O)N1
60 | O=C1NC(=O)/C(=C/c2ccc(OCCc3ccsc3)cc2)S1
45 | O=C1NC(=O)/C(=C/c2ccc(OCC3CCCC3)cc2)S1
